Experimental data published in the NIST ThermoML archive (doi:10.1016/j.jct.2017.02.022).

Assays:
[1] = xn = mol fraction of the nth substance listed; settings: 101.3 kPa, Liquid; for speed of sound: Frequency=3 MHz, Sing-around technique in a fixed-path interferometer; for mass density: Vibrating tube method
[2] = refractive index (Na D-line) (dimensionless); xn = mol fraction of the nth substance listed; settings: 101.3 kPa, Liquid, Standard Abbe refractometry

CCn1cc[n+](C)c1.COS(=O)(=O)[O-] [1-ethyl-3-methylimidazolium methylsulfate] + CCCO
Settings	mass density, [1] [kg/m3]	refractive index, [2]	speed of sound, [1] [m/s]
298 K, x1 = 0.059	864	1.394	1247
298 K, x1 = 0.228	1003	1.419	1377
298 K, x1 = 0.375	1090	1.435	1487
298 K, x1 = 0.524	1156	1.448	1588
298 K, x1 = 0.72	1223	1.463	1681
298 K, x1 = 0.874	1264	1.473	1730
298 K, x1 = 1	1292	1.48	1762
303 K, x1 = 0.059	859	1.393	1230
303 K, x1 = 0.228	998	1.417	1362
303 K, x1 = 0.375	1085	1.433	1473
303 K, x1 = 0.524	1152	1.446	1574
303 K, x1 = 0.72	1219	1.461	1668
303 K, x1 = 0.874	1260	1.471	1717
303 K, x1 = 1	1289	1.479	1750
308 K, x1 = 0.059	855	1.391	1214
308 K, x1 = 0.228	993	1.415	1347
308 K, x1 = 0.375	1080	1.431	1458
308 K, x1 = 0.524	1148	1.444	1560
308 K, x1 = 0.72	1215	1.459	1654
308 K, x1 = 0.874	1257	1.469	1704
308 K, x1 = 1	1285	1.478	1739
313 K, x1 = 0.059	851	1.389	1197
313 K, x1 = 0.228	989	1.413	1332
313 K, x1 = 0.375	1076	1.428	1443
313 K, x1 = 0.524	1143	1.442	1546
313 K, x1 = 0.72	1211	1.457	1641
313 K, x1 = 0.874	1253	1.468	1692
313 K, x1 = 1	1282	1.476	1727
